{"source": "paper PMC9270327", "about": "(Communications Biology, 2022)", "key": {"[1]": {"molecular_target": "T1, recombinant human thrombin (Homo sapiens, UniProt P00734)", "T1 construct": "purchased R&D Systems (Minneapolis, MN, USA)", "test": "Enzyme inhibition assay with purified thrombin (Ki, dose-response)", "assay_type": "biochemical", "conditions": "for thrombin activity, Mean (Fig. 2c): normalized, 0 nM = 100", "from_the_text": "(§1) Recombinant human TMPRSS2 was purchased from Creative BioMart (New York, USA) or LSBio (Seattle, USA), factor Xa was obtained from Bio-Techne GmbH (Wiesbaden, Germany). Recombinant human thrombin and matriptase protein were purchased from R&D Systems (Minneapolis, MN, USA)."}, "factor Xa": {"molecular_target": "T2, factor Xa (Homo sapiens, UniProt P00742)", "T2 construct": "purchased Bio-Techne GmbH (Wiesbaden, Germany)", "T2 sequence (P00742 235-488 limits assumed)": "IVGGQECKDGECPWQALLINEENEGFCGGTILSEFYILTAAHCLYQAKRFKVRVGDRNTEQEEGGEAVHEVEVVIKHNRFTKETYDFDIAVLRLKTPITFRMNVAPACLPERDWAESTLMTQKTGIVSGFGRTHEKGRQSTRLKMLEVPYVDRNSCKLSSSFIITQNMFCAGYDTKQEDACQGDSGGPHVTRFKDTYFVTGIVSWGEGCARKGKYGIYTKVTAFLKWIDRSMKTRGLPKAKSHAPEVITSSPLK", "T2 sequence (P00742 41-179 partner limits assumed)": "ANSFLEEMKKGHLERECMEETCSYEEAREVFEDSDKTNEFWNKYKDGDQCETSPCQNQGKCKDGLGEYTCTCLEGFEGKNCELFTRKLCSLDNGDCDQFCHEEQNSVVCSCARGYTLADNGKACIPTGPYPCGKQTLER", "test": "Enzyme inhibition assay with purified factor Xa (Ki, dose-response)", "assay_type": "biochemical", "conditions": "for factor Xa activity, Mean (Fig. 2d): normalized, 0 nM = 100", "from_the_text": "as §1"}, "TMPRSS2": {"molecular_target": "TMPRSS2 (Homo sapiens, UniProt O15393)", "sequence (O15393 whole entry)": "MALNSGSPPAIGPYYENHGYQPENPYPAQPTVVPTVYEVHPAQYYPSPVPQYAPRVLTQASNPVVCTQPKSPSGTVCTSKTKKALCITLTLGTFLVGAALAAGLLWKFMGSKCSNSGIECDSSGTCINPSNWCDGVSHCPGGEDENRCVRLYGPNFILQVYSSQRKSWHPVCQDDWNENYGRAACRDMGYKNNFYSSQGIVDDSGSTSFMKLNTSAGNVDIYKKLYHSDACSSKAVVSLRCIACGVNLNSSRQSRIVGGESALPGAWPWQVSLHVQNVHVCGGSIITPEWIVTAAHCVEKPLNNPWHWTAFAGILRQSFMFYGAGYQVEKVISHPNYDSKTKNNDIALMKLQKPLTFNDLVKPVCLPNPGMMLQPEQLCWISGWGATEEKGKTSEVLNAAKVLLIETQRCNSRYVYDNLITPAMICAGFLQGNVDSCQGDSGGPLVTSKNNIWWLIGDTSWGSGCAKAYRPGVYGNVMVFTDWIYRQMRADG", "test": "Plasma stability: residual TMPRSS2 inhibition after incubation in human plasma", "protocol": "The activity of the compounds against the recombinant human enzymes was determined in enzyme inhibition assays. […] The measurements were performed on a Tecan infinite® M1000 and the fluorescence intensity was measured by exciting the AMC fluorophore at 380 nm wavelength and recording emission at 460 nm wavelength. […] Fluorescence intensities and absorption were measured every 2 min for 2 h or as endpoint after 2 h. […] To determine the IC50 values, the concentration-response data were plotted with the program GraphPad prism version 8.4.2 (San Diego, California) and a nonlinear regression fit with the equation [Inhibitor] vs. normalized response was applied. The inhibitory constant Ki was calculated from the IC50 values using the Cheng–Prusoff equation (Ki = IC50/[S]/KM) for competitive reversible inhibitors[66].\nThe stability of the inhibitors was measured according to a modified procedure from ref. [67]. […] At indicated timepoints, 100 µL samples were taken and mixed with 200 µL of ethanol to precipitate proteins. […] The supernatant was aspirated and analyzed using analytical HPLC. The residual inhibitory constants Ki after incubation was assessed by mixing serial dilutions of the inhibitor with recombinant TMPRSS2 as described above.\nShown are the means ± SD of n=1 experiment performed in triplicates."}}}
{"substance": "ace-Arg-Pro-Arg-kbt [Compound 2]", "values": [{"measurement": "thrombin activity, Mean (Fig. 2c)", "setting": "[1]; 0.02 nM", "result": 98.5684}, {"measurement": "thrombin activity, Mean (Fig. 2c)", "setting": "[1]; 0.04 nM", "result": 95.6033}, {"measurement": "thrombin activity, Mean (Fig. 2c)", "setting": "[1]; 0.2 nM", "result": 102.761}, {"measurement": "thrombin activity, Mean (Fig. 2c)", "setting": "[1]; 2 nM", "result": 99.4379}, {"measurement": "thrombin activity, Mean (Fig. 2c)", "setting": "[1]; 20 nM", "result": 100.358}, {"measurement": "thrombin activity, Mean (Fig. 2c)", "setting": "[1]; 200 nM", "result": 86.605}, {"measurement": "thrombin activity, Mean (Fig. 2c)", "setting": "[1]; 10000 nM", "result": 11.4518}, {"measurement": "thrombin activity, Mean (Fig. 2c)", "setting": "[1]; 100000 nM", "result": -13.8043}, {"measurement": "Ki", "setting": "[1]; 30 min preincubation, substrate D-Phe-Homopro-Arg-pNA", "result": 599, "unit": "nM"}, {"measurement": "Selectivity index Thrombin", "setting": "[1]; quotient Ki thrombin / Ki TMPRSS2", "result": 158}, {"measurement": "factor Xa activity, Mean (Fig. 2d)", "setting": "factor Xa; 0.02 nM", "result": 109.27}, {"measurement": "factor Xa activity, Mean (Fig. 2d)", "setting": "factor Xa; 0.04 nM", "result": 100.653}, {"measurement": "factor Xa activity, Mean (Fig. 2d)", "setting": "factor Xa; 0.2 nM", "result": 101.827}, {"measurement": "factor Xa activity, Mean (Fig. 2d)", "setting": "factor Xa; 2 nM", "result": 97.7797}, {"measurement": "factor Xa activity, Mean (Fig. 2d)", "setting": "factor Xa; 20 nM", "result": 88.6416}, {"measurement": "factor Xa activity, Mean (Fig. 2d)", "setting": "factor Xa; 200 nM", "result": 49.7393}, {"measurement": "factor Xa activity, Mean (Fig. 2d)", "setting": "factor Xa; 10000 nM", "result": 7.702}, {"measurement": "factor Xa activity, Mean (Fig. 2d)", "setting": "factor Xa; 100000 nM", "result": 2.742}, {"measurement": "Ki", "setting": "factor Xa; 30 min preincubation, substrate Bz-Ile-Glu-Gly-Arg-pNA", "result": 107, "unit": "nM"}, {"measurement": "Selectivity index Factor Xa", "setting": "factor Xa; quotient Ki factor Xa / Ki TMPRSS2", "result": 28.1}, {"measurement": "TMPRSS2 activity, Mean (0 nM = 100)", "setting": "TMPRSS2; inhibitor 0.0167 nM, 0 min in plasma", "result": 108.191}, {"measurement": "TMPRSS2 activity, Mean (0 nM = 100)", "setting": "TMPRSS2; inhibitor 0.0167 nM, 30 min in plasma", "result": 105.387}, {"measurement": "TMPRSS2 activity, Mean (0 nM = 100)", "setting": "TMPRSS2; inhibitor 0.0167 nM, 60 min in plasma", "result": 97.3483}, {"measurement": "TMPRSS2 activity, Mean (0 nM = 100)", "setting": "TMPRSS2; inhibitor 0.0167 nM, 120 min in plasma", "result": 100.611}, {"measurement": "TMPRSS2 activity, Mean (0 nM = 100)", "setting": "TMPRSS2; inhibitor 0.0167 nM, 24 h in plasma", "result": 95.898}, {"measurement": "TMPRSS2 activity, Mean (0 nM = 100)", "setting": "TMPRSS2; inhibitor 0.0167 nM, 10 d in plasma", "result": 98.4437}, {"measurement": "TMPRSS2 activity, Mean (0 nM = 100)", "setting": "TMPRSS2; inhibitor 0.0167 nM, positive ctrl", "result": 103.005}, {"measurement": "TMPRSS2 activity, Mean (0 nM = 100)", "setting": "TMPRSS2; inhibitor 0.167 nM, 0 min in plasma", "result": 105.131}, {"measurement": "TMPRSS2 activity, Mean (0 nM = 100)", "setting": "TMPRSS2; inhibitor 0.167 nM, 30 min in plasma", "result": 104.481}, {"measurement": "TMPRSS2 activity, Mean (0 nM = 100)", "setting": "TMPRSS2; inhibitor 0.167 nM, 60 min in plasma", "result": 96.8072}, {"measurement": "TMPRSS2 activity, Mean (0 nM = 100)", "setting": "TMPRSS2; inhibitor 0.167 nM, 120 min in plasma", "result": 98.0518}, {"measurement": "TMPRSS2 activity, Mean (0 nM = 100)", "setting": "TMPRSS2; inhibitor 0.167 nM, 24 h in plasma", "result": 93.482}, {"measurement": "TMPRSS2 activity, Mean (0 nM = 100)", "setting": "TMPRSS2; inhibitor 0.167 nM, 10 d in plasma", "result": 101.036}, {"measurement": "TMPRSS2 activity, Mean (0 nM = 100)", "setting": "TMPRSS2; inhibitor 0.167 nM, positive ctrl", "result": 100.219}, {"measurement": "TMPRSS2 activity, Mean (0 nM = 100)", "setting": "TMPRSS2; inhibitor 1.665 nM, 0 min in plasma", "result": 102.769}, {"measurement": "TMPRSS2 activity, Mean (0 nM = 100)", "setting": "TMPRSS2; inhibitor 1.665 nM, 30 min in plasma", "result": 100.449}, {"measurement": "TMPRSS2 activity, Mean (0 nM = 100)", "setting": "TMPRSS2; inhibitor 1.665 nM, 60 min in plasma", "result": 96.1849}, {"measurement": "TMPRSS2 activity, Mean (0 nM = 100)", "setting": "TMPRSS2; inhibitor 1.665 nM, 120 min in plasma", "result": 100.213}, {"measurement": "TMPRSS2 activity, Mean (0 nM = 100)", "setting": "TMPRSS2; inhibitor 1.665 nM, 24 h in plasma", "result": 98.9115}, {"measurement": "TMPRSS2 activity, Mean (0 nM = 100)", "setting": "TMPRSS2; inhibitor 1.665 nM, 10 d in plasma", "result": 97.0442}, {"measurement": "TMPRSS2 activity, Mean (0 nM = 100)", "setting": "TMPRSS2; inhibitor 1.665 nM, positive ctrl", "result": 88.8492}, {"measurement": "TMPRSS2 activity, Mean (0 nM = 100)", "setting": "TMPRSS2; inhibitor 16.65 nM, 0 min in plasma", "result": 86.0968}, {"measurement": "TMPRSS2 activity, Mean (0 nM = 100)", "setting": "TMPRSS2; inhibitor 16.65 nM, 30 min in plasma", "result": 100.379}, {"measurement": "TMPRSS2 activity, Mean (0 nM = 100)", "setting": "TMPRSS2; inhibitor 16.65 nM, 60 min in plasma", "result": 78.8625}, {"measurement": "TMPRSS2 activity, Mean (0 nM = 100)", "setting": "TMPRSS2; inhibitor 16.65 nM, 120 min in plasma", "result": 82.8569}, {"measurement": "TMPRSS2 activity, Mean (0 nM = 100)", "setting": "TMPRSS2; inhibitor 16.65 nM, 24 h in plasma", "result": 83.5789}, {"measurement": "TMPRSS2 activity, Mean (0 nM = 100)", "setting": "TMPRSS2; inhibitor 16.65 nM, 10 d in plasma", "result": 88.0057}, {"measurement": "TMPRSS2 activity, Mean (0 nM = 100)", "setting": "TMPRSS2; inhibitor 16.65 nM, positive ctrl", "result": 53.0338}, {"measurement": "TMPRSS2 activity, Mean (0 nM = 100)", "setting": "TMPRSS2; inhibitor 166.5 nM, 0 min in plasma", "result": 23.84}, {"measurement": "TMPRSS2 activity, Mean (0 nM = 100)", "setting": "TMPRSS2; inhibitor 166.5 nM, 30 min in plasma", "result": 25.2709}, {"measurement": "TMPRSS2 activity, Mean (0 nM = 100)", "setting": "TMPRSS2; inhibitor 166.5 nM, 60 min in plasma", "result": 26.798}, {"measurement": "TMPRSS2 activity, Mean (0 nM = 100)", "setting": "TMPRSS2; inhibitor 166.5 nM, 120 min in plasma", "result": 22.618}, {"measurement": "TMPRSS2 activity, Mean (0 nM = 100)", "setting": "TMPRSS2; inhibitor 166.5 nM, 24 h in plasma", "result": 21.6315}, {"measurement": "TMPRSS2 activity, Mean (0 nM = 100)", "setting": "TMPRSS2; inhibitor 166.5 nM, 10 d in plasma", "result": 39.6688}, {"measurement": "TMPRSS2 activity, Mean (0 nM = 100)", "setting": "TMPRSS2; inhibitor 166.5 nM, positive ctrl", "result": 13.9877}, {"measurement": "TMPRSS2 activity, Mean (0 nM = 100)", "setting": "TMPRSS2; inhibitor 1665 nM, 0 min in plasma", "result": 0.5738}, {"measurement": "TMPRSS2 activity, Mean (0 nM = 100)", "setting": "TMPRSS2; inhibitor 1665 nM, 30 min in plasma", "result": 7.5387}, {"measurement": "TMPRSS2 activity, Mean (0 nM = 100)", "setting": "TMPRSS2; inhibitor 1665 nM, 60 min in plasma", "result": 0.2056}, {"measurement": "TMPRSS2 activity, Mean (0 nM = 100)", "setting": "TMPRSS2; inhibitor 1665 nM, 120 min in plasma", "result": 7.6223}, {"measurement": "TMPRSS2 activity, Mean (0 nM = 100)", "setting": "TMPRSS2; inhibitor 1665 nM, 24 h in plasma", "result": 2.774}, {"measurement": "TMPRSS2 activity, Mean (0 nM = 100)", "setting": "TMPRSS2; inhibitor 1665 nM, 10 d in plasma", "result": 10.1282}, {"measurement": "TMPRSS2 activity, Mean (0 nM = 100)", "setting": "TMPRSS2; inhibitor 1665 nM, positive ctrl", "result": 12.6313}]}
